Assay results reported in PubChem BioAssay AID1549 (Sanford-Burnham Center for Chemical Genomics, 2009).
Calls of active or inactive are those of the source. How the calls were made is not given here.

Molecular target: Influenza A virus M2 proton channel (A/TW/4845/1999 H1N1)
Experiment: NMR binding screen, influenza A virus M2 proton channel, Kd (AID 1549)
Details: M2 protein

`O=C(O)CCCc1nc2ccccc2s1` was tested, and the Kd was > 4 mM (inactive).

`COCCn1c(N)nc2c1c(=O)[nH]c(=O)n2C` was tested, and the Kd was > 4 mM (inactive).

With `NC1=NN(c2ccccc2)C(=O)C1` the Kd was > 4 mM (inactive).

With `CC1=CC(C)C(C(=O)O)C(C(=O)N2CCN(C)CC2)C1` (configuration not stated) the Kd was > 4 mM (inactive).

`NC(=O)CCn1cnc2ccccc21` was tested, and the Kd was > 4 mM (inactive).

In the case of `O=C1CC(=O)N(c2ccccc2F)C(=S)N1`, the Kd is reported as > 4 mM (inactive).

In the case of `C(=C\c1ccccc1)/C=N/n1cnnc1`, the Kd is reported as > 4 mM (inactive).

`CC(C)(O)[C@@H]1[C@H]2OC(=O)[C@@H]1[C@]1(O)C[C@H]3O[C@]34C(=O)O[C@H]2[C@]14C` was tested, and the Kd was > 4 mM (inactive).

For `Cc1nnc(NCc2cccnc2)[nH]c1=O`, the Kd was > 4 mM (inactive).

In the case of `Cn1c(CO)nc2ccccc21`, the Kd is reported as > 4 mM (inactive).

With `O=C1Nc2ccc(S(=O)(=O)NCCO)c3cccc1c23` the Kd was > 4 mM (inactive).

In the case of `O=C(O)CN1C(=O)c2cccc([N+](=O)[O-])c2C1=O`, the Kd is reported as > 4 mM (inactive).

In the case of `CC(=O)Nc1ccc(N(C)C(C)=O)cc1`, the Kd is reported as > 4 mM (inactive).

`CC[C@H](/C=C/C(C)C1CCC2C3CCC4=CC(=O)CC[C@]4(C)C3CC[C@]12C)C(C)C` (some centres not stated) was tested, and the Kd was > 4 mM (inactive).

For `O=C(Cc1cccs1)Nc1ccon1`, the Kd was > 4 mM (inactive).

With `CNC(=O)C(=O)Nc1cccc(Cl)c1` the Kd was > 4 mM (inactive).

In the case of `CCCNC(=O)CSc1nnc(C)s1`, the Kd is reported as > 4 mM (inactive).

For `O=C(CSc1nnc2ccccn12)N1CCOCC1`, the Kd was > 4 mM (inactive).

`C[C@@H]1O[C@@H](O[C@H]2[C@@H](Oc3cc(O)c4c(c3)O[C@H](c3ccc(O)cc3)CC4=O)O[C@H](CO)[C@@H](O)[C@@H]2O)[C@H](O)[C@H](O)[C@H]1O` was tested, and the Kd was > 4 mM (inactive).

For `Cc1nc(-c2ccccc2)ncc1CO`, the Kd was > 4 mM (inactive).

For `COC1C=CC23c4cc5c(cc4CN(CC2O)[C@@H]3C1)OCO5` (some centres not stated), the Kd was > 4 mM (inactive).

`COc1cc2occc2c2oc(=O)ccc12` was tested, and the Kd was > 4 mM (inactive).

With `Cc1nc(N)sc1C(=O)N/N=C/c1ccncc1` the Kd was > 4 mM (inactive).

For `O=C(O)Cc1noc2ccccc12`, the Kd was > 4 mM (inactive).

In the case of `C=CC(C)(O)CC/C=C(\C)CCC=C(C)C` (configuration not stated), the Kd is reported as > 4 mM (inactive).

In the case of `Oc1cc(O)cc(/C=C/c2ccccc2)c1`, the Kd is reported as > 4 mM (inactive).

In the case of `COC1=CC(C)[C@@H]2C[C@H]3OC(=O)C[C@H]4C(C)=C(OC)C(=O)C([C@@]34C)[C@@]2(C)C1=O` (some centres not stated), the Kd is reported as > 4 mM (inactive).

With `CC(=O)Nc1ccccc1-c1ccccc1NC(C)=O` the Kd was > 4 mM (inactive).

`O=C(CSc1ccccc1)N1CCC2(CC1)OCCO2` was tested, and the Kd was > 4 mM (inactive).

With `Cc1nc2ccccc2c2c1C(=O)N(C)C2=O` the Kd was > 4 mM (inactive).

`O=C1CNC(=O)N1Cc1ccc(F)cc1` was tested, and the Kd was > 4 mM (inactive).

`Cc1nc(CC(=O)O)c(-c2ccccc2)s1` was tested, and the Kd was > 4 mM (inactive).

`CCOc1ccc(C)cc1S(=O)(=O)n1ccc(C)n1` was tested, and the Kd was > 4 mM (inactive).

`O=C(Cn1cncn1)c1ccc(F)c(F)c1` was tested, and the Kd was > 4 mM (inactive).

For `CC(=O)c1ccc[nH]1`, the Kd was > 4 mM (inactive).

In the case of `NC(=O)c1ccc(NC(=O)C2CC2)cc1`, the Kd is reported as > 4 mM (inactive).

With `O=C(O)C1=Cc2ccccc2OC1` the Kd was > 4 mM (inactive).

`Cc1cc(C(=O)Nc2cccnc2)no1` was tested, and the Kd was > 4 mM (inactive).

For `NC1=NC(=O)/C(=C/c2ccccc2[N+](=O)[O-])S1`, the Kd was > 4 mM (inactive).

With `CC(=O)NC(=S)Nc1ccccc1C` the Kd was > 4 mM (inactive).

In the case of `CNC(=O)C(=O)Nc1ccc(C)c(C)c1`, the Kd is reported as > 4 mM (inactive).

For `c1ccc2c(c1)ncn2CCn1cnc2ccccc21`, the Kd was > 4 mM (inactive).

`O=C(Nc1ccon1)c1ccccc1Cl` was tested, and the Kd was > 4 mM (inactive).

`NC(=O)CNC(=O)c1ccc2ccccc2n1` was tested, and the Kd was > 4 mM (inactive).

For `O=S(=O)(N1CCOCC1)n1nnc2ccccc21`, the Kd was > 4 mM (inactive).

With `O=c1cnnc(SCCc2ccccc2)[nH]1` the Kd was > 4 mM (inactive).

In the case of `NCc1ccc2c(c1)CCO2`, the Kd is reported as > 4 mM (inactive).

`N#Cc1cnn2c(C(F)(F)F)cc(C(F)(F)F)nc12` was tested, and the Kd was > 4 mM (inactive).

For `CC1(C)O[C@H]2CC(=O)OC[C@]23[C@H]2CC[C@@]4(C)[C@H](c5ccoc5)OC(=O)[C@H]5O[C@]54[C@]2(C)C(=O)C[C@@H]13`, the Kd was > 4 mM (inactive).

With `O=C(Nc1ccccc1)c1cnc2n(c1=O)CCS2` the Kd was > 4 mM (inactive).

With `COc1cc2c(cc1O)CC1c3c(cc(O)c(OC)c3-2)CCN1C` (configuration not stated) the Kd was > 4 mM (inactive).

`COC(=O)CCC(C)C1CCC2C3CCC4C[C@H](O)CC[C@]4(C)C3C[C@H](O)[C@]12C` (some centres not stated) was tested, and the Kd was > 4 mM (inactive).

With `Oc1cc2c(cc1O)C1c3ccc(O)c(O)c3OCC1(O)C2` (configuration not stated) the Kd was > 4 mM (inactive).

For `COc1cc2c(cc1OC)[C@@]13CCN4CC5=CCOC6CC(=O)N2C1[C@H]6[C@H]5C[C@H]43` (some centres not stated), the Kd was > 4 mM (inactive).

`Cc1nn(CC(=O)Nc2ccccc2)c(=O)c2ccccc12` was tested, and the Kd was > 4 mM (inactive).

`Oc1ccc([C@H]2Oc3cc(O)cc(O)c3C[C@H]2O)cc1` was tested, and the Kd was > 4 mM (inactive).

For `COc1ccc(C(=O)NNC(=S)NC(C)=O)cc1`, the Kd was > 4 mM (inactive).

With `CN1CCC[C@H]1c1cccnc1` the Kd was > 4 mM (inactive).

In the case of `NCc1ccc(-n2cccn2)cc1`, the Kd is reported as > 4 mM (inactive).

With `CCCCC(Nc1n[nH]c(=O)[nH]c1=O)C(=O)O` (configuration not stated) the Kd was > 4 mM (inactive).

For `COc1c2c(cc3cc[n+](C)cc13)OCO2`, the Kd was > 4 mM (inactive).

`CC(=O)Nc1ccc(NC(=O)c2ccnn2C)cc1` was tested, and the Kd was > 4 mM (inactive).

`CC1=C(/C=C/C(C)=C/C=C/C(C)=C/C=C/C=C(C)/C=C/C=C(C)/C=C/C2=C(C)CCCC2(C)C)C(C)(C)CCC1` was tested, and the Kd was > 4 mM (inactive).

With `O=C(Cc1ccccc1)Nc1c[nH]c(=O)[nH]c1=O` the Kd was > 4 mM (inactive).

In the case of `O=C(NC1=NCCS1)c1csc2ccccc12`, the Kd is reported as > 4 mM (inactive).

`Cc1ccc(NC(=O)C2CCCNC2=O)nc1` (configuration not stated) was tested, and the Kd was > 4 mM (inactive).

In the case of `O=C(NCc1ccccc1Br)c1ccco1`, the Kd is reported as > 4 mM (inactive).

With `O=C(c1cccc(-n2cnnn2)c1)N1CCOCC1` the Kd was > 4 mM (inactive).

`CC(C)NC1CS(=O)(=O)CC1O` (configuration not stated) was tested, and the Kd was > 4 mM (inactive).

In the case of `CCOC12NC(=O)CC(=O)N1C(c1ccccc1)=CS2` (configuration not stated), the Kd is reported as > 4 mM (inactive).

For `Nc1cccc(NC(=O)c2cccs2)c1`, the Kd was > 4 mM (inactive).

With `C=C1C(N)CC2CC1C2(C)C` (configuration not stated) the Kd was > 4 mM (inactive).

For `CC(CC(=O)O)n1cccn1` (configuration not stated), the Kd was > 4 mM (inactive).

For `O=C(c1ccc(Cl)s1)N1CCOCC1`, the Kd was > 4 mM (inactive).

With `Cc1cccc(NC(=O)CN2C(=O)CNC2=O)c1` the Kd was > 4 mM (inactive).

For `COC(=O)C[C@@H]1C2(C)C(=O)[C@@H](CC3=C4CC(O)O[C@@H](c5ccoc5)[C@]4(C)CCC32)[C@H](O)C1(C)C` (some centres not stated), the Kd was > 4 mM (inactive).

`O=C(O)C12CC3CC(CC(O)(C3)C1)C2` was tested, and the Kd was > 4 mM (inactive).

For `CCc1c(C(=O)N2CCOCC2)csc1C`, the Kd was > 4 mM (inactive).

`CCC(=O)Nc1ccccc1NC(C)=O` was tested, and the Kd was > 4 mM (inactive).

For `NC(=O)CSc1ccccn1`, the Kd was > 4 mM (inactive).

For `COc1ccccc1N1C(=N)SCC1=O`, the Kd was > 4 mM (inactive).

`CC(=O)NC(=S)Nc1ccc(S(N)(=O)=O)cc1` was tested, and the Kd was > 4 mM (inactive).

`Cc1ccc2c(C)c(C(=O)Nc3nnc(C)s3)oc2c1` was tested, and the Kd was > 4 mM (inactive).

With `CN(C)C(=O)CCNS(=O)(=O)c1ccccc1` the Kd was > 4 mM (inactive).

With `O=C(Nc1ccon1)c1cccc(C(F)(F)F)c1` the Kd was > 4 mM (inactive).

With `COc1ccc(NC(=O)N2CCCCC2)cc1` the Kd was > 4 mM (inactive).

For `COC(=O)c1ccccc1NC(=O)c1cc[n+]([O-])cc1`, the Kd was > 4 mM (inactive).

With `COC(=O)C(O)c1ccccc1` (configuration not stated) the Kd was > 4 mM (inactive).

In the case of `COc1cc(-c2coc3cc(OCc4ccccc4)c(OC)c(O)c3c2=O)cc(O)c1OC`, the Kd is reported as > 4 mM (inactive).

`CN(C)/C=N/S(=O)(=O)c1ccccc1` was tested, and the Kd was > 4 mM (inactive).

In the case of `O=C(CN1CCOCC1)Nc1nccs1`, the Kd is reported as > 4 mM (inactive).

For `Nc1c2c3c(sc2nc(=O)n1N)CCCC3`, the Kd was > 4 mM (inactive).

In the case of `O=c1c(O)c(-c2ccccc2)oc2cc(O)ccc12`, the Kd is reported as > 4 mM (inactive).

For `CC(=O)c1c(C)nn(CC(=O)O)c1C`, the Kd was > 4 mM (inactive).

`CCCCCCCCCCCCCc1ccco1` was tested, and the Kd was > 4 mM (inactive).

With `O=c1[nH]cnc2nc[nH]c12` the Kd was > 4 mM (inactive).

In the case of `CC(=O)Nc1c(Cl)cnn(-c2ccccc2)c1=O`, the Kd is reported as > 4 mM (inactive).

In the case of `S=c1nc(C2CC2)[nH]c2ccccc12`, the Kd is reported as > 4 mM (inactive).

For `CN1CCN(C(=O)c2cc(-c3ccccc3)on2)CC1`, the Kd was > 4 mM (inactive).

For `CC(=O)N1N=C(N)SC1c1cccnc1` (configuration not stated), the Kd was > 4 mM (inactive).

In the case of `COc1nc(N2CCOCC2)nc(N)c1[N+](=O)[O-]`, the Kd is reported as > 4 mM (inactive).

In the case of `NC1=NC(=O)C(Cc2cccc([N+](=O)[O-])c2)S1` (configuration not stated), the Kd is reported as > 4 mM (inactive).

With `CC1(C)NC(=O)N(CCOc2ccc3c(c2)CCC3)C1=O` the Kd was > 4 mM (inactive).

In the case of `COC(=O)c1scc(C)c1N`, the Kd is reported as > 4 mM (inactive).

For `CC1(C)C=CC(=O)[C@@]2(C)C1CC(=O)[C@]1(C)C2CC[C@@]2(C)[C@H](c3ccoc3)OC(=O)C3OC321` (some centres not stated), the Kd was > 4 mM (inactive).

With `O=C(Nc1ccccc1C(F)(F)F)N1CCCCCC1` the Kd was > 4 mM (inactive).

With `CC(=O)O[C@@H]1C[C@@]2(C)[C@H](c3ccoc3)C[C@H]3O[C@]32[C@]2(C)C(=O)C(O)=C3C(C)(C)C(=O)C=C[C@]3(C)C12` (some centres not stated) the Kd was > 4 mM (inactive).

`Cc1cc(=O)n2[nH]c(COc3ccccc3)nc2n1` was tested, and the Kd was > 4 mM (inactive).

`O=C(Nc1ccccc1CO)c1ccccc1F` was tested, and the Kd was > 4 mM (inactive).

`Cc1c(CO)cnn1-c1ccccc1` was tested, and the Kd was > 4 mM (inactive).

In the case of `Cc1nc2ccccc2c(=O)n1CCCO`, the Kd is reported as > 4 mM (inactive).

In the case of `Nc1ccc(C2SCCS2)cc1`, the Kd is reported as > 4 mM (inactive).

With `CC(=O)Nc1ccc(Nc2nnc(C)c(=O)[nH]2)cc1` the Kd was > 4 mM (inactive).

For `C=C1CCC(=O)C(C)CCC2C1CC2(C)C` (configuration not stated), the Kd was > 4 mM (inactive).

In the case of `O=c1cc(-c2ccccc2)oc2cc(O)c(O)c(O)c12`, the Kd is reported as > 4 mM (inactive).

`N#Cc1nc(-c2cccs2)oc1N1CCOCC1` was tested, and the Kd was > 4 mM (inactive).

For `CCN1CCN(c2ncnc3c2nnn3C)CC1`, the Kd was > 4 mM (inactive).
